Results taken from US7741521B2, “Inhibition of bid-induced cell-death using small organic molecules” (The Burnham Institute, priority 2004, dated 2010).

Each compound was assayed against T1, tBID (Mus musculus, UniProt P70444) (assay: tBID-induced Smac release from isolated mitochondria). Conditions: 50 μM compound; isolated mitochondria.
T1 construct: tBID was produced by cleavage of purified BID with caspase-8, as known in the art; made in house; host or cells: E. coli BL21 (BID), then cleaved in vitro with caspase-8
T1 sequence (P70444 60-195 limits assumed): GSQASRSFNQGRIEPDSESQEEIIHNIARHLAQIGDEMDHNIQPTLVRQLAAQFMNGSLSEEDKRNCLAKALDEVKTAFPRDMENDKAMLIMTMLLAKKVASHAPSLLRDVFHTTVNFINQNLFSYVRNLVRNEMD
T1 sequence (P70444 1-59 partner limits assumed): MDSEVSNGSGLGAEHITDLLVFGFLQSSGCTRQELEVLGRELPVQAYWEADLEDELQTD
Type: biochemical
Experimental: 100 ng of tBID (cleaved by caspase 8) was pre-incubated with various concentrations of compounds for 15 minutes at 30° C. in HM buffer (10 mM Hepes, pH 7.4, 250 mM Mannitol, 10 mM KCl, 1.5 mM MgCl, 1 mM DTT, 1 mM EGTA), then 50 μg of isolated mitochondria from HCT116 cells were added to a final volume of 50 μl in HM buffer. After 1 hour incubation at 30° C., the samples were centrifuged at 10,000×g for 5 minutes at 4° C. and the supernatant was analyzed by SDS-PAGE/immunoblotting using anti-SMAC antibody.
Compounds II-IX were tested in vitro for their ability to inhibit BID-mediated release of Smac using mitochondria isolated from HeLa cells (FIG. 6A). The first lane represents mitochondria incubated without tBID. All others received 100 ng tBID without or with compounds. Each compound was tested at a concentration of 50 μM. […] To preliminarily investigate the mechanism by which compound II reduces Smac-release from isolated mitochondria, the tBID protein was treated with different concentrations of BI-6C9, after which it was incubated with mitochondria, followed by analysis of the bound and unbound fractions by immunoblotting using BID antibody. The concentration of mitochondria-bound tBID diminished in response to increasing concentrations of compound II.
About 50 ng of tBID cleaved by […] was pre-incubated for about 15 minutes at about 30° C. with various concentrations of compounds I, II, and X. Then, about 50 μg of isolated mitochondria from Hela cells were added to the reaction system. After about 1 hour of incubation at about 30° C., the samples were centrifuged at 10,000×g for about 5 minutes at about 4° C., and the supernatant was analyzed by SDS-PAGE/immunoblotting using Smac antibody. The results of the analysis are presented on FIG. 8. As shown by FIG. 9, compound I is a strong binder for BID.
Some results of comparative studies of compounds I and II are shown on FIG. 10. […] The first lane represents mitochondria incubated without tBID. All others received 50 ng tBid without or with bi-dentate compound.

SMILES | inhibition at 50 µM
COc1ccc(S(=O)(=O)NCCCC(=O)Nc2ccc(Sc3ccc([N+](=O)[O-])cc3)cc2)cc1 [Compound III, 4-(4-methoxy-benzenesulfonylamino)-N-[4-(4-nitro-phenylsulfanyl)-phenyl]-butyramide] | 24%
CNS(=O)(=O)c1ccc(C)cc1 [X] | 0%
Nc1ccc(Sc2ccc(N)cc2)cc1 [XII] | 22%
NCCCCCC(=O)Nc1ccc(Sc2ccc([N+](=O)[O-])cc2)cc1 [Compound IX, 6-amino-hexanoic acid [4-(4-nitro-phenylsulfanyl)-phenyl]-amide] | 60%
COc1ccc(S(=O)(=O)NCCCCCC(=O)Nc2ccc(Sc3ccc([N+](=O)[O-])cc3)cc2)cc1 [Compound V, 6-(4-methoxy-benzenesulfonylamino)-hexanoic acid [4-(4-nitro-phenylsulfanyl)-phenyl]-amide] | 16%
CC(C)(C)OC(=O)NCCCC(=O)Nc1ccc(Sc2ccc([N+](=O)[O-])cc2)cc1 [Compound VI, {3-[4-(4-nitro-phenylsulfanyl)-phenylcarbamoyl]-propyl}-carbamic acid tert-butyl ester] | 14%
CC(C)(C)OC(=O)NCCCCCC(=O)Nc1ccc(Sc2ccc([N+](=O)[O-])cc2)cc1 [Compound VIII, {5-[4-(4-nitro-phenylsulfanyl)-phenylcarbamoyl]-pentyl}-carbamic acid tert-butyl ester] | 0%
NCCCC(=O)Nc1ccc(Sc2ccc([N+](=O)[O-])cc2)cc1 [Compound VII, 4-amino-N-[4-(4-nitro-phenylsulfanyl)-phenyl]-butyramide] | 66%

The compounds below were run against T2, BID (Mus musculus, UniProt P70444) (assay: NMR binding to BID (HSQC/TROSY chemical shifts)). Conditions: NMR.
T2 construct: poly-His (N); made in house; host or cells: E. coli BL21
T2 sequence (P70444 1-195): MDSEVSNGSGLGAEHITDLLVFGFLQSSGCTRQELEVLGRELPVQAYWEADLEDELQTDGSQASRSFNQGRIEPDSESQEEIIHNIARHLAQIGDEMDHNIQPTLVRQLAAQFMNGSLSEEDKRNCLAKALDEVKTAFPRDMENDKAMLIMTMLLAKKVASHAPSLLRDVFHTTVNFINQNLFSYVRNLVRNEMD
Experimental: Recombinant full length mouse BID was produced from a pET-19b (Novagen) plasmid construct containing the entire nucleotide sequence for BID fused to an N-terminal poly-His tag. Unlabeled BID was expressed in E. coli BL21 in LB media at 37° C., with an induction period of 3-4 hours with 1 mM IPTG. ^15N-labeled BID was similarly produced, with growth occurring in M9 media supplemented with 0.5 g/L ^15NH4Cl. ε-^13C-Met labeled BID was produced in M9 media supplemented with 50 mg/L of ε-^13C-Met at time of induction with IPTG. Following cell lysis, soluble BID was purified over a Hi-Trap chelating column (Amersham, Pharmacia), followed by ion-exchange purification with a MonoQ (Amersham, Pharmacia) column. Final BID samples were dialyzed into a buffer appropriate for the subsequent experiments. tBID was produced by cleavage of purified BID with caspase-8, as known in the art.
For all NMR experiments, BID was exchanged into 50 mM phosphate buffer at pH 7.5 and measurements were performed at 30° C. 2D [^15N,^1H]-TROSY spectra for BID were measured with 0.5 mM samples of ^15N-labeled BID. 2D [^13C,^1H]-HSQC spectra were measured with 0.2 mM samples of ε-^13C-Met labeled BID. 2D [^1H,^1H]-NOESY spectra were acquired with small molecules at a concentration of 0.9 mM in the presence of 10 μM BID. T1ρ competition experiments (200 msec spin-lock duration) were performed on either 100 μM BI-2A7 or a mixture of 100 μM BI-2A7 and 10 μM BI-6C9, in the presence and absence of 10 μM BID. All experiments were performed with either a 500 MHz or 600 MHz Bruker Avance spectrometer, both equipped with TXI probes. Typical parameters for the 2D [^15N,^1H]-TROSY spectra included ^1H and ^15N π/2 pulse lengths of 11 μsec and 40 μsec, respectively; ^1H and ^15N sweep widths of 12 ppm and 32 ppm, respectively; 16 scans and 256 indirect acquisition points and a recycle delay of 1 sec. For the 2D [^13C,^1H]-HSQC typical parameters included ^1H and ^13C π/2 pulse lengths of 10 μsec and 13 μsec, respectively; ^1H and ^13C sweep widths of 12 ppm and 5 ppm, respectively; 128 scans and 80 indirect acquisition points and a recycle delay of 1 sec. […]
To examine the binding affinity of some compounds of the invention to BID, 2D [^13C,^1H]-HSQC spectra in presence of ^13C methionine-labeled protein were measured, as at least one methionine is present in the hydrophobic groove of BID (FIG. 4B). […]
Monitoring the variation of cross-peak intensity upon addition of increasing amounts of compound II, allowed to estimate its dissociation constant KD. The arrow on FIG. 5C indicates the peak that was monitored to determine the Kd for compound II. […]

SMILES | binding to BID
Nc1ccc(Sc2ccc(N)cc2)cc1 [XII] | weak binder
